The source made the active and inactive calls.

In one test the test system is CHO. Kind of test: cytotoxicity in TLR9-MyD88 CHO cells, dose response, cytotoxicity control for TLR9-MyD88 binding inhibitor project, cell-based, luminescence (AID 588339).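 Further: CHO cells stably coexpressing TLR9 and MyD88 fusions from primary screen; compound exposure lasted 48 hours before viability readout.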 The class given is functional, hamster. Particulars: Cricetulus griseus.
Test [1] has as its target 1-phosphatidylinositol 4,5-bisphosphate phosphodiesterase beta-3 (Homo sapiens, UniProt Q01970). Kind of test: Fluorescence-based biochemical high throughput dose response assay to identify inhibitors of phospholipase C isozymes (PLC-B3).
Test [2] can be described thus: microbe, parasite or virus in culture. To be noted: Mycobacterium tuberculosis. It counts as functional.
A short description of test [3]: inhibitors of clade B AD8 Env fusion, dose response, cell-based, cherry-pick (AID 652062).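 Further: luciferase signal from cell-cell fusion driven by HIV-1 clade B AD8 Env; potency is for inhibitors of fusion seen as a drop in luminescence.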 The class given is functional.
A further test concerns the target T1, Hexokinase HKDC1 (Homo sapiens, UniProt Q2TB90).
T1 sequence (Q2TB90 whole entry): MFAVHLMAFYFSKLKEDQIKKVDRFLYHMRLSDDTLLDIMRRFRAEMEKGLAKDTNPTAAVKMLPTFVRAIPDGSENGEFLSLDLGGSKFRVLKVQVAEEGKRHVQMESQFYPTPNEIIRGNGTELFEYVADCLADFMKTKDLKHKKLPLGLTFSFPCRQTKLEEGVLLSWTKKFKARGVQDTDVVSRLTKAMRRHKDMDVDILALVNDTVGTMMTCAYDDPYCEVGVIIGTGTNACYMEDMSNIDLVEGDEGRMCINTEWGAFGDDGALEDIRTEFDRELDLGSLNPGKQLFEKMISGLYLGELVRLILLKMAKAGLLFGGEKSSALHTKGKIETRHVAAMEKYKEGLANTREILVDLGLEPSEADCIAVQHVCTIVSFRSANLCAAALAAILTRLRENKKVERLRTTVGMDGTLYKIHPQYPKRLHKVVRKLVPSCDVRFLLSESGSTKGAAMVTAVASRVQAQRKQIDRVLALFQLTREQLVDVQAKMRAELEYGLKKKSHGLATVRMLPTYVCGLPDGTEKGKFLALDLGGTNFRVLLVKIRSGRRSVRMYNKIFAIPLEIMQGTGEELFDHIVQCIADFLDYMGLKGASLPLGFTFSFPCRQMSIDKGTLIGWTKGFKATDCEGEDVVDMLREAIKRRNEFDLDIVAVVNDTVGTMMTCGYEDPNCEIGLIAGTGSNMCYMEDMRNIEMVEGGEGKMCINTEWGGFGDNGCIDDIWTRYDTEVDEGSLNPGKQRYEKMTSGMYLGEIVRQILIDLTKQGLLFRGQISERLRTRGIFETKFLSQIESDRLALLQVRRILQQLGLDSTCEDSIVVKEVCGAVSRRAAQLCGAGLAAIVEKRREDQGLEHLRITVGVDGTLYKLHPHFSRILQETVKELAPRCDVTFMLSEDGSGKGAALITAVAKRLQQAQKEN
Kind of test: HKDC1 hexokinase inhibitors, dose response, biochemical, W721R variant (AID 504729). The class given is functional.

Test [4] deals with T2, Apoptotic protease-activating factor 1 (Homo sapiens, UniProt O14727).
T2 sequence (O14727 whole entry): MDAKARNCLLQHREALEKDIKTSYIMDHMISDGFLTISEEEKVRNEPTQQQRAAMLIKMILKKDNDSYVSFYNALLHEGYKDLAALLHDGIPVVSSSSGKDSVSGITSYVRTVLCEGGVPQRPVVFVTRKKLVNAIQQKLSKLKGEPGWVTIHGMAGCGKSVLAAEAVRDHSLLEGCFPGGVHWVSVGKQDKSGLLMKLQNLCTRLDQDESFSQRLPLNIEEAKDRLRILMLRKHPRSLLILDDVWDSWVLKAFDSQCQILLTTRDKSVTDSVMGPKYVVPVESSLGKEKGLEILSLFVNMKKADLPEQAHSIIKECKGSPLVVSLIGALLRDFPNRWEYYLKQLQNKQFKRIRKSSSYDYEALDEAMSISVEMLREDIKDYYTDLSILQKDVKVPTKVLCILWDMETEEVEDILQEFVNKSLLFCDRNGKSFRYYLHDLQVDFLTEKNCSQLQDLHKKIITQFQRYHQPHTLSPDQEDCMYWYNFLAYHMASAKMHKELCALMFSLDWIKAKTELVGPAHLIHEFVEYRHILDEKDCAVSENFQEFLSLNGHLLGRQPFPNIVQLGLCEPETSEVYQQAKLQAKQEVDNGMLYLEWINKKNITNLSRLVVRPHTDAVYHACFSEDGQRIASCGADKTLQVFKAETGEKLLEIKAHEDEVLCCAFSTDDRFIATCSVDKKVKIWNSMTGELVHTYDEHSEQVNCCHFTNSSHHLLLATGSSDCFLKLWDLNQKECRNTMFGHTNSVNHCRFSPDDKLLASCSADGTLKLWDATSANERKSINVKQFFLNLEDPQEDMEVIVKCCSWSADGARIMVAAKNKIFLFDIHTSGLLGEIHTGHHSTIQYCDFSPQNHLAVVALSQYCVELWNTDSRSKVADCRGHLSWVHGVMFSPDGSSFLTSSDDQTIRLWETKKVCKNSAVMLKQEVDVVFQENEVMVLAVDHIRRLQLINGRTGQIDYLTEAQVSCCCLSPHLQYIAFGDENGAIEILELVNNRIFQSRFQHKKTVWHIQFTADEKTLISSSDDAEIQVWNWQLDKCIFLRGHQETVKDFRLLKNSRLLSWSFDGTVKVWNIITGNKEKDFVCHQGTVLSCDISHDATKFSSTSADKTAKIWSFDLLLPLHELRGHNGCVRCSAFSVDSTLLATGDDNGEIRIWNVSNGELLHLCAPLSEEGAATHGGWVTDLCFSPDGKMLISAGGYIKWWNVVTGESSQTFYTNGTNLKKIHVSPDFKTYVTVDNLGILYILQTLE
In words: SAR analysis of small molecule inhibitors of Apaf-1 in a Fluorescent assay. The class given is functional. Particulars: read-out: IC50_Mean.

Sequence of 1-phosphatidylinositol 4,5-bisphosphate phosphodiesterase beta-3 (Q01970 whole entry): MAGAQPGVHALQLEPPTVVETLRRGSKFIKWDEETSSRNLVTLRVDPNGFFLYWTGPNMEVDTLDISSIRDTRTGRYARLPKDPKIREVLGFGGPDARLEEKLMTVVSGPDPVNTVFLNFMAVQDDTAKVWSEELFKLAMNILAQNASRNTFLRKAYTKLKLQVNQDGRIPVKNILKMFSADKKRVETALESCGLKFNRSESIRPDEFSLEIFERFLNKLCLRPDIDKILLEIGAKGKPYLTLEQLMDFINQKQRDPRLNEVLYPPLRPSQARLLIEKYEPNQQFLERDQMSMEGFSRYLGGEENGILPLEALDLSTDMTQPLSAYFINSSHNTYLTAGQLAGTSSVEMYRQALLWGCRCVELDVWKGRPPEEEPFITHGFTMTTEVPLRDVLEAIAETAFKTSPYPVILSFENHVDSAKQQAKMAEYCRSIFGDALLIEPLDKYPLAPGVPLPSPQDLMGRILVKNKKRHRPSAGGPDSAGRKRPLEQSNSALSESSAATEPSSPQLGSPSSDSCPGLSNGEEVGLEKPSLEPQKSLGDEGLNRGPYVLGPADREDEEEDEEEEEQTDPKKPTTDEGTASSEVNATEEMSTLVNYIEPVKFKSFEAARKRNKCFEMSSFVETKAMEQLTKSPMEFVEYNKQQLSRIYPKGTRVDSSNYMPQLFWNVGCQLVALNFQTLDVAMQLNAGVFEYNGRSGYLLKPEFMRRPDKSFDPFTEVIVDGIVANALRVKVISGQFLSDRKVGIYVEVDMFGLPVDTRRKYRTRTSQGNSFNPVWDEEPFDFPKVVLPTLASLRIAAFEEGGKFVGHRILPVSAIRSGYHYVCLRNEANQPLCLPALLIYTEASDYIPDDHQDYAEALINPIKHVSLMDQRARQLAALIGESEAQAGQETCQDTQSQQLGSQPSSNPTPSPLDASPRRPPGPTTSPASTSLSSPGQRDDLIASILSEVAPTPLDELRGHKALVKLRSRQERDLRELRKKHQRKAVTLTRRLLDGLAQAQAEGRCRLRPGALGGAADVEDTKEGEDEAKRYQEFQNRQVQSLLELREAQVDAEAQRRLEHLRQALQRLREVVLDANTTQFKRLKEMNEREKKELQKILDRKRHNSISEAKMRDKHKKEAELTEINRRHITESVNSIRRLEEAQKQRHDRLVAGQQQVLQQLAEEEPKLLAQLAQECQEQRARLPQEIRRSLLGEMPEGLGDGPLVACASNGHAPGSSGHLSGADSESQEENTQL

In the case of `CCC(=O)OCCNc1cc(Sc2nccn2C)c2nonc2c1[N+](=O)[O-]`, in the test on CHO, the IC50 was 2380 nM (active).
What is called AC50 is the concentration giving half of the maximal activity seen. Turning to `O=C1C(=O)c2ccccc2-c2ccccc21` [9,10-PHENANTHRENEQUINONE], the IC50 in test [1] was > 122000 nM (inactive). The CC50 in test [2] is 2330 nM (active). Also, the AC50 in test [3] is 2660 nM (active).
Take `CCOC(=O)C1=C(c2ccc(OC)cc2)C(=O)c2ccccc2C1=O`: the IC50 at Hexokinase HKDC1 is 2320 nM (active).
For the compound `O=C1c2cc(F)ccc2-n2c1nc1ccccc1c2=O`, the IC50 in test [4] is 67700 nM (active).

For the origin of these results see ChEMBL document CHEMBL1201862, “PubChem BioAssay data set” (2004).
